Patent US8541670B2, “Compositions and methods for inhibiting tumor cell growth” (priority 2007, dated 2013)
Where no end group is shown, it is not given here.

Tests used:
PI3K[…] = assay: In vitro kinase assay PI3K[…]; format: biochemical; conditions: ten times higher concentration than 0.1 μM
Procedure: (§1) As a specific substrate, the phosphorylation level of GSK-3[…] at Ser-9 was also evaluated. […] The decrease was specific to the AKT phosphorylation site on GSK-3[…] at Ser-9, since a change in the phosphorylation level of GSK-3[…] at Tyr-216 or GSK-3[…] at Tyr-279 was not observed. Moreover, the in vivo reduction of the phosphorylation of AKT substrates was more obvious at the injection site, since a significant change in the phosphorylation of AKT substrates in the frontal cortex or cerebellum between the two hemispheres was not observed. […] To test the specificity/selectivity of ZaTa as the inhibitor of AKT1 versus the other major kinases, a series of in vitro kinase assays was performed at IC50 for AKT1 and at ten times higher concentrations. A panel of the following 32 kinases was first tested in vitro using the active form of each kinase and a specific substrate: AKT2, AKT3, PKA, PKC[…], PKC, PI3K[…], PI3K[…], PI3K, SGK, PAK2, PAK3, SAPK2/p38, Abl, CaMKII, CDK1/cyclinB, CDK5/p35, CK1, CK2, CSK, GSK3[…], GSK3[…], JNK1[…]1, MAPK1, p70S6K, PDGFR[…], PDGFR[…], PDK1, PKG1[…], TrkB, JAK2, JAK3, and Syk. […] However, at ten times higher concentration, ZaTa inhibited AKT2 (63%), PI3K[…] (72%), p70S6K (64%), SGK (73%), PAK3 (83%), JAK3 (79%), TrkB (84%), and Abl (42%). […]

p70S6K [1] = target: T1, p70S6K (Homo sapiens, UniProt P23443); assay: In vitro kinase assay p70S6K; format: biochemical; conditions: ten times higher concentration than 0.1 μM
T1 construct: endogenous in cells
T1 sequence (P23443 whole entry): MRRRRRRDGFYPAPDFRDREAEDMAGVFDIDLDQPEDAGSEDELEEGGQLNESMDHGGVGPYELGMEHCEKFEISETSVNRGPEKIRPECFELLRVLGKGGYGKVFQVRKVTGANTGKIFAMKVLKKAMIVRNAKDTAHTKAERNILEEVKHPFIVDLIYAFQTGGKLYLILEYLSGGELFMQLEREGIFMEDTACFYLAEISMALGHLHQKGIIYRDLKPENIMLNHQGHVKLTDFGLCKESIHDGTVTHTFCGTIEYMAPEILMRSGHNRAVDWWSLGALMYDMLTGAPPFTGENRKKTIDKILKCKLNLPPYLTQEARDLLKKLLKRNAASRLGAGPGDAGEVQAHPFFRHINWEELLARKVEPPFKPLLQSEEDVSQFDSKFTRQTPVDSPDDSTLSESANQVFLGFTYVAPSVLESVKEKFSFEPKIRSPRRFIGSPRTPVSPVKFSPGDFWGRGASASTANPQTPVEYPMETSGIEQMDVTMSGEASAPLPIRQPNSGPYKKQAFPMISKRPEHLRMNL
Procedure: as §1

PAK3 = PAK3 (Homo sapiens, UniProt O75914); assay: In vitro kinase assay PAK3; format: biochemical; conditions: ten times higher concentration than 0.1 μM
Sequence of PAK3 (O75914 whole entry, species assumed): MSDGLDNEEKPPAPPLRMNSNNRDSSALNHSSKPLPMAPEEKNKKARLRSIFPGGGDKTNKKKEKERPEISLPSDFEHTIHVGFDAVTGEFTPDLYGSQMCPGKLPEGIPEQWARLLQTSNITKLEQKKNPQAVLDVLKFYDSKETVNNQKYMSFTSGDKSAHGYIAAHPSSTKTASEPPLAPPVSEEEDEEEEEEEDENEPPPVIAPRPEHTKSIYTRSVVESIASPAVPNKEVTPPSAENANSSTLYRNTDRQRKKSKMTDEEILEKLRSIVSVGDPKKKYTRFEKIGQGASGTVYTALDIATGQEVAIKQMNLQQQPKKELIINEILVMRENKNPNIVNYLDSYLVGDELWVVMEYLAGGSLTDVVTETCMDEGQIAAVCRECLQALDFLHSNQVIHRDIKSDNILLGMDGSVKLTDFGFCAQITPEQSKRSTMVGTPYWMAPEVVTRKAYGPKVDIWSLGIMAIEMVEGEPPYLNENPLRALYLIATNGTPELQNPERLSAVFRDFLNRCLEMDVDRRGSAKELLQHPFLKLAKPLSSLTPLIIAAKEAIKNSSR
Procedure: as §1

Abl = target: T2, Abl (Mus musculus, UniProt P00520); assay: In vivo selectivity, western blot of phosphorylated substrate after injection into one hemisphere; conditions: versus DMSO hemisphere
T2 construct: from tissue; host or cells: mouse brain hemisphere (striatum injection)
T2 sequence (P00520 whole entry): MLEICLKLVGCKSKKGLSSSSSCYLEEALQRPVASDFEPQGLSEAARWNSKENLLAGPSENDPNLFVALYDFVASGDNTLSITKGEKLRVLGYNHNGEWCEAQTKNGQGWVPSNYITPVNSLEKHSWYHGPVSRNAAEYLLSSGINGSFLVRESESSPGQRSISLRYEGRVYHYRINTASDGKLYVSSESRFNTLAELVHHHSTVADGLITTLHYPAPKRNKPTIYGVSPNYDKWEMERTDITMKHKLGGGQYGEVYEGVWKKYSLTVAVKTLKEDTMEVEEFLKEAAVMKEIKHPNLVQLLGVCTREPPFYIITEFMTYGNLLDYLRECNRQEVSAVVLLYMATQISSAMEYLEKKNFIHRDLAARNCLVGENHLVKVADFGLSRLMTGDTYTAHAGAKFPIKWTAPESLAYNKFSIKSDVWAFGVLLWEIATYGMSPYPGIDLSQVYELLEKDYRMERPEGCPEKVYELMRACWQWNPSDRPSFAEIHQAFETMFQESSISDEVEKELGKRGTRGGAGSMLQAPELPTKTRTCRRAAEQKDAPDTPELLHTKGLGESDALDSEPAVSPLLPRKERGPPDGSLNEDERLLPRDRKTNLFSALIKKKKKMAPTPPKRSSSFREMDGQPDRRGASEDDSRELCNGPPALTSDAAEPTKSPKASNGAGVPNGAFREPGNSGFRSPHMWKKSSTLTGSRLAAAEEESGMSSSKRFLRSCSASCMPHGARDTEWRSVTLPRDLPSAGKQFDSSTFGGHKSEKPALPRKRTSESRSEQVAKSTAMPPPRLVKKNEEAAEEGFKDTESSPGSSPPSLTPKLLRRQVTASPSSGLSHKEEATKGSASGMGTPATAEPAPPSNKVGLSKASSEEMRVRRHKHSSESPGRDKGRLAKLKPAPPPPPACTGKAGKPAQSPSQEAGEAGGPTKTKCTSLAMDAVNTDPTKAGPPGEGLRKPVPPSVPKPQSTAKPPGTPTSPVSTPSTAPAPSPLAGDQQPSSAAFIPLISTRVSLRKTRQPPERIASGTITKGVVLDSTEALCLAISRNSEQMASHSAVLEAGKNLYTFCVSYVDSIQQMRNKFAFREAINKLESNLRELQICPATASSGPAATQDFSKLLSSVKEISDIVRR
Procedure: (§2) To analyze in vivo selectivity, ZaTa was injected into one hemisphere and DMSO in the other hemisphere, as above, and a series of western blot analyses was preformed with phospho-specific antibodies which recognize a phosphorylated substrate or each one of the kinases that ZaTa inhibited at higher concentrations in vitro. […] Given the high functional and structural homology between p70S6K and AKT, the in vivo inhibitory effect of ZaTa on p70S6K was contemplated. Furthermore, the in vivo effect of ZaTa on the phosphorylation levels of substrates for PKA, PKC, CDKs using phospho-specific antibodies recognizing the phosphorylated consensus sites of these kinases was analyzed. In contrast to the consistent decrease in phosphorylation of AKT substrates, significant changes in the phosphorylation level of PKA, PKC and CDKs substrates was not observed after in vivo injection of ZaTa.
(§3) Phosphorylation sites for kinases analyzed herein included Ser-235/236 S6 (a substrate for p70S6K), Tyr-207 CRKL (a substrate for Abl; Zipfel, et al. (2004) supra), Ser-241 PDK1 (a substrate for PI3K), Tyr-1022/1023 JAK1 (a substrate for JAK3; Wang, et al. (2003) supra), Ser-421 Huntingtin (a substrate for SGK; Rangone, et al. (2004) supra), Tyr-783 PLC (a substrate for TrkB; Middlemas, et al. (1994) supra), and Ser-338 cRaf (a substrate for PAK3; King, et al. (1998) supra).

p70S6K [2] = target: T3, p70S6K (Mus musculus, UniProt Q8BSK8); assay: as above; conditions: versus DMSO hemisphere
T3 construct: from tissue; host or cells: mouse brain hemisphere
T3 sequence (Q8BSK8 whole entry): as the sequence (P23443 whole entry) above, with P12L, D18H, M488V counted along it
Procedure: as §2, §3

AKT = assay: Cell penetration and co-localization of fluorescently labeled ZaTa with AKT; format: cell-based; conditions: immunofluorescence
Source text: Peptides can be very effective inhibitors since they efficiently bind to and inhibit enzymatic activity. However, intracellular delivery of peptides can limit their use. With the exception of a few peptides known as cell-penetrating peptides (CPPs), which have been recognized for their use in site-specific drug delivery, inhibitory peptides can have limited intracellular accumulation in in vivo enzymatic studies. […] Based on the primary structure of the ZaTa peptide (i.e., a peptide having a basic arm of several basic residues at the N-terminus and a polar arm composed of several residues with free hydroxyl group at the C-terminus) and in vivo inhibitory effect in the brain, it was determined whether ZaTa peptide was a CPP. The ZaTa peptide was labeled with a red fluorescent dye at its N-terminus given that its C-terminus was important for inhibitory activity. The efficiency of the labeling and the purity of the labeled peptide were assessed by mass spectrometry.
These different localization patterns of ZaTa within the cell were usually accompanied with redistribution of AKT to the site of ZaTa.
Cell cultures were analyzed by growing cells (1×10^4) on coverslips, fixation for 10 minutes in phosphate-buffered saline (PBS) plus 3.7% formaldehyde, and permeabilization for 2 minutes with cold acetone. […]

[3] = system: axonal filament bundles in striatum; assay: In vivo axon morphology, neurofilament-H staining of striatum after stereotactic injection; design: species or system mouse; conditions: 18 hours after surgery, versus DMSO hemisphere
Procedure: To determine the phenotypic effect of disrupting the AKT-PKAc complex in an in vivo setting, ZaTa peptide was stereotactically injected into the brain of a mouse and the animal was perfused 18 hours after recovery from surgery. Because AKT is known to have a role in axonal morphology (Markus, et al. (2002) Neuron 35:65-76), coronal sections of striatum were stained with neurofilament-H(NF—H), as an axonal-specific marker. […] PKA is also known to have a role in regeneration of growth cones on axons (Chierzi, et al. (2005) Eur. J. Neurosci. 21:2051-2062). Therefore, given the data provided herein, it is believed that a proper interaction between AKT and PKAc is involved in maintaining normal neuronal morphology.

AKRVKGRTWTLCGTPEY [ZaTa]
inhibition of PI3K[…] (PI3K[…]): 72% | inhibition of p70S6K (p70S6K [1]): 64% | inhibition of PAK3 (PAK3): 83% | in vivo inhibition of Abl (Abl): weaker in vivo inhibition | in vivo inhibition of p70S6K (p70S6K [2]): potent in vivo inhibition | phosphorylation level of AKT substrates in cells entered by ZaTa (AKT): decrease in the phosphorylation level of AKT substrates | staining pattern of axonal filament bundles (NF-H) in striatum [3]: Changes in the staining pattern of axonal filament bundles
